Experiments:
[1] = Stability of N-chloramines in aqueous solution (half-life, iodometric and/or spectrophotometric); assay type: physicochemical; details: for half-life: temperature 40
Experimental: The stability of the compound, 1,4-dichloro-2,2,5,5-tetramethyl-3,6-piperazinedione in aqueous solution was determined by (1) following the disappearance of the positive chlorine concentration of the N-Chloramine solution iodometrically and/or (2) following the decrease in the absorbance at the maximum wavelength spectrophotometrically.
The data obtained was interpreted in terms of a first order kinetic process and the half-life of said compound was reported in units of time at the condition under which they were determined.

Staph. aureus = test: Antibacterial activity: time required for complete sterilization (modified serial dilution method); assay type: cell-based, Staph. aureus ATCC 6538
From the text: (§1) The procedure to determine the antibacterial activity of 1,4-dichloro-2,2,5,5-tetramethyl-3,6-piperazinedione was based primarily on a modification of the serial dilution method of analysis. However, instead of determining the minimum inhibitory concentration parameters for the compound investigated, applicants alternatively chose to determine the bactericidal endpoint for a given concentration of the compound investigated. Consequently, applicants studies were established to determine the time required for complete sterilization of the micro-organism tested, when exposed to a given concentration of the compound investigated.
(§2) Nutrient Broth B.B.L. -- 8g/1000 ml. distilled water. The broth contains 5g. gelysate peptone and 3g. beef extract. The solution has a pH of 6.9.
(§3) Nutrient Agar -- 23g/1000 ml. distilled water. The nutrient contains 5g. gelysate peptone, 3g. beef extract and 15g. agar.
(§4) Horse Serum T.C. -- 10% horse serum solution in distilled water. The serum solution was freshly prepared and adjusted to a pH of 7 using carbon dioxide prior to its use.
(§5) A stock solution of the isolated compound (1,4,dichloro-2,2,5,5-tetramethyl-3,6-piperazinedione) was prepared using an appropriate buffered solution.
(§6) For screening in the absence of a denaturing agent (e.g., horse serum) an equal volume of distilled water and the resulting solution was subjected to the screen.
(§7) For screening in the presence of a denaturing agent, a volume of the stock solution was diluted using an equal volume of 10% horse serum. When necessary, the final solution was adjusted to the desired pH using 1N HCL and the solution was permitted to stand at room temperature for thirty minutes prior to the screening procedure.
(§8) To 5 ml. of the stock solution being evaluated, there was added 0.2 ml. of an overnight broth culture containing the particular micro-organism being investigated (see above). At time intervals of 0.5, 1, 2, 3, 4, 5, . . . minutes, a loop of this suspension was subcultured into 5 ml. of a sterile nutrient broth. All the samples were then incubated at 37° C for seven days with daily observation for evidence of bacterial growth. The time interval reported is for that sample in which no bacterial growth was observed after the incubation period.
(§9) To 5 ml. of a sterile 0.9% sodium chloride solution, there was added 0.2 ml. of an overnight broth culture containing the particular micro-organismbeing investigated. A loop of this suspension was subcultured into 5 ml. of a sterile nutrient broth and incubated at 37° C for seven days.
(§10) To 5 ml of a sterile nutrient broth, there was added a loop of the 1,4-dichloro-2,2,5,5-tetramethyl-3,6-piperazinedione solution and the solution was mixed immediately. To this solution, there was then added a loop of an overnight broth culture which was diluted 25x with a 0.9% sodium chloride solution. Incubation was carried out for seven days at a temperature of 37° C.
(§11) At the same time intervals used for subculturing the test solution into nutrient broth during the screening procedure, a loop of the test solution was also subcultured onto sterile nutrient agar plates. This technique was useful for observing the characteristic colonial morphology of each organism.
(§12) The entire screening procedure was conducted for each buffered solution using the buffered solution rather than the 1,4-dichloro-2,2,5,5-tetramethyl-3,6-piperazinedione solution in the procedure.

Pseud. aeruginosa = test: as above; assay type: cell-based, Pseud. aeruginosa ATCC 9027
From the text: as §1, §2, §3, §4, §5, §6, §7, §8, §9, §10, §11, §12

E. coli = test: as above; assay type: cell-based, E. coli ATCC 10536
From the text: as §1, §2, §3, §4, §5, §6, §7, §8, §9, §10, §11, §12

Bord. bronchiseptica = test: as above; assay type: cell-based, Bord. bronchiseptica ATCC 4617
From the text: as §1, §2, §3, §4, §5, §6, §7, §8, §9, §10, §11, §12

Staph. epidermidis = test: as above; assay type: cell-based, Staph. epidermidis ATCC 12228
From the text: as §1, §2, §3, §4, §5, §6, §7, §8, §9, §10, §11, §12

Kleb. pneumoniae = test: as above; assay type: cell-based, Kleb. pneumoniae ATCC 10031
From the text: as §1, §2, §3, §4, §5, §6, §7, §8, §9, §10, §11, §12

[2] = 0.1M Na2B4O7 pH8.8, diluent H2O, 0.62 × 10^-3 M (146PPM), positive Cl 43 PPM
[3] = 0.1M NaH2PO4, diluent H2O, 0.52 × 10^-3 M, positive Cl 36 PPM
[4] = 0.1M NaH2PO4 pH7.0, diluent serum (10% horse serum), 0.52 × 10^-3 M (126PPM), positive Cl 36 PPM
[5] = 0.1M NaOAc pH 4.6, diluent H2O, 0.59 × 10^-3 M (139 PPM), positive Cl 41 PPM
[6] = 0.1M NaOAc pH 4.6, diluent serum (10% horse serum), 0.59 × 10^-3 M (139 PPM), positive Cl 41 PPM

Compound: O=C1CN(Cl)C(=O)CN1Cl [1,4-dichloro-2,5-piperazinedione, reference compound]
- half-life ([1]; 0.1M Na2B4O7 pH 9.3): 0.717 h
- half-life ([1]; 0.1M NaH2PO4 pH 7.0): 0.883 h
- half-life ([1]; 0.1M NaOAc pH 4.6): 15.5 h

Compound: CC1(C)C(=O)N(Cl)C(C)(C)C(=O)N1Cl [1,4-dichloro-2,2,5,5-tetramethyl-3,6-piperazinedione]
- Antibacterial activity time, 6538 (Staph. aureus; [2]): 4 min
- Antibacterial activity time, 6538 (Staph. aureus; [3]): 4 min
- Antibacterial activity time, 6538 (Staph. aureus; [4]): > 15 min
- Antibacterial activity time, 6538 (Staph. aureus; [5]): 3 min
- Antibacterial activity time, 6538 (Staph. aureus; [6]): > 15 min
- Antibacterial activity time, 9027 (Pseud. aeruginosa; [2]): 4 min
- Antibacterial activity time, 9027 (Pseud. aeruginosa; [3]): 5 min
- Antibacterial activity time, 9027 (Pseud. aeruginosa; [4]): > 15 min
- Antibacterial activity time, 9027 (Pseud. aeruginosa; [5]): 3 min
- Antibacterial activity time, 9027 (Pseud. aeruginosa; [6]): > 10 min
- Antibacterial activity time, 10536 (E. coli; [2]): 1 min
- Antibacterial activity time, 10536 (E. coli; [3]): 1 min
- Antibacterial activity time, 10536 (E. coli; [4]): > 15 min
- Antibacterial activity time, 10536 (E. coli; [5]): 1 min
- Antibacterial activity time, 10536 (E. coli; [6]): > 10 min
- half-life ([1]; 0.1M Na2B4O7 pH 9.3): 38 h
- half-life ([1]; 0.1M NaH2PO4 pH 7.0): 332 h
- half-life ([1]; 0.1M NaOAc pH 4.6): 3070 h
- Stability (half-life) compared with 1,4-dichloro-2,5-piperazinedione ([1]; same pH (4.6, 7.0 and 9.3)): far greater stability (half-life)
- Antibacterial activity time, 4617 (Bord. bronchiseptica; [2]): 4 min
- Antibacterial activity time, 4617 (Bord. bronchiseptica; [3]): 3 min
- Antibacterial activity time, 4617 (Bord. bronchiseptica; [4]): > 15 min
- Antibacterial activity time, 4617 (Bord. bronchiseptica; [5]): 1 min
- Antibacterial activity time, 4617 (Bord. bronchiseptica; [6]): > 10 min
- Antibacterial activity time, 12228 (Staph. epidermidis; [2]): 2 min
- Antibacterial activity time, 12228 (Staph. epidermidis; [3]): 2 min
- Antibacterial activity time, 12228 (Staph. epidermidis; [4]): > 15 min
- Antibacterial activity time, 12228 (Staph. epidermidis; [5]): 2 min
- Antibacterial activity time, 12228 (Staph. epidermidis; [6]): > 15 min
- Antibacterial activity time, 10031 (Kleb. pneumoniae; [2]): 4 min
- Antibacterial activity time, 10031 (Kleb. pneumoniae; [3]): 4 min
- Antibacterial activity time, 10031 (Kleb. pneumoniae; [4]): > 15 min
- Antibacterial activity time, 10031 (Kleb. pneumoniae; [5]): 2 min
- Antibacterial activity time, 10031 (Kleb. pneumoniae; [6]): > 10 min

From patent publication US4018925A, “Method of arresting bacterial growth with certain selected dichloro-2,2,5,5-tetrasubstituted-3-6-piperazinediones” (Interx Research Corporation, priority 1975, dated 1977)
